Results on 16 compounds are retold here after publication PMC8225628, “Bispecific repurposed medicines targeting the viral and immunological arms of COVID-19” (Scientific Reports, 2021).

Values joined by “and” are separate entries in the source; they are usually repeats but may differ in a detail not shown here. Equal values may be shown once. Read-outs that look alike come from different tables or passages of the source. *1 amine or outer side, *2 acyl side, *3 side chain or, on linkers, in order; H or OH if unused. Where a SMILES comes first, the peptide text is derived from it. Bridges are numbered along the chain shown (N, C = ends). [ ]: non-standard residue; d: D form. The star is where a group is joined. hTyr(3S-OH,4S-OH,3'-OSO3H) = N[C@H](C(=O)O)[C@H](O)[C@@H](O)c1ccc(O)c(OS(=O)(=O)O)c1; Orn(4R-OH,5R-OH) = O=C([C@H](C[C@@H](O)[C@@H](O)N[*:3])N[*:1])[*:2]; Pro(3S-OH,4S-Me) = C[C@H]1CN[C@H](C(=O)O)[C@H]1O; X1 = CCCCCOc1ccc(-c2cc(-c3ccc(C(=O)*)cc3)no2)cc1; Gln(3R-OH) = NC(=O)C[C@@H](O)[C@H](N)C(=O)O; Hyp = O=C(O)[C@@H]1C[C@@H](O)CN1

One data set deals with SARS-CoV-2 PL^pro (Severe acute respiratory syndrome coronavirus 2, UniProt P0DTD1). In words: biochemical. The settings on record: for inhibition at 10 µM: read-out: PL^pro % inhibition at 10 µM.
In another data set the target is SARS-CoV-2 M^pro (Severe acute respiratory syndrome coronavirus 2, UniProt P0DTD1). Put plainly: biochemical. The conditions noted are these: for IC50: read-out: M^pro IC50; for inhibition at 10 µM: read-out: M^pro % inhibition at 10 µM.
The subject of the next data set is HUH7 cells. The conditions noted are these: HUH7 cells, 4 days.
The subject of a further data set is SARS-CoV-2. In words: Antiviral assay, inhibition of SARS-CoV-2 cytopathic effect in HUH7_mCherry cells. The conditions noted are these: HUH7 cells, at 100 µM. In general terms: Cytopathic effects are the visible damage that an infection or toxin causes in cultured cells.
Where [1] appears, read: SARS-CoV-2 PL^pro, range in brackets, read-out: IC50 (µM) (range).
Where [2] appears, read: ReFRAME hits, >5e-6 = not potent enough to determine an IC50.
Setting [3] is: ReFRAME hits, >5e-6 = not potent enough to determine an IC50, read-out: PL^pro IC50.

Regarding `Nc1nc(N)nc(Nc2ccc([As]3SC(C(=O)O)C(C(=O)O)S3)cc2)n1` (stereo not shown) [MELARSONYL], the “PL^pro % inhibition at 10 µM” value at SARS-CoV-2 PL^pro amounted to 11%. For the same compound, the IC50 at SARS-CoV-2 PL^pro (read-out: PL^pro IC50) is over 5 µM.

As for `CN(C)C/C=C/C(=O)Nc1cc2c(Nc3ccc(F)c(Cl)c3)ncnc2cc1O[C@H]1CCOC1` [Compound 11, Afatinib, reference compound], the IC50 at SARS-CoV-2 PL^pro (setting [1]) was found to be 12 µM.

As to `CN(C/C=C/C#CC(C)(C)C)Cc1cccc2c(F)cc(F)cc12` [SDZ-880-540], at SARS-CoV-2 M^pro (ReFRAME hits), the “M^pro % inhibition at 10 µM” value was -1%. Besides, the IC50 at SARS-CoV-2 M^pro (setting [2]) and at SARS-CoV-2 PL^pro (setting [3]) was over 5 µM in each case. In addition, the “PL^pro % inhibition at 10 µM” value at SARS-CoV-2 PL^pro (ReFRAME hits, 10 µM) worked out at 15%.

Consider `COc1cc2ncnc(Nc3ccc(F)c(Cl)c3)c2cc1NC(=O)/C=C/CN1CCCCC1` [Compound 12, Dacomitinib, reference compound], for which the IC50 at SARS-CoV-2 PL^pro (setting [1]) came to 4 µM.

Take `CCOC1OC(=O)CC1NC(=O)C1CCCN1C(=O)C(NC(=O)c1ccc(N)c(Cl)c1)C(C)(C)C` (stereo not shown) [Compound 7, belnecasan, reference compound]: the “Inhibition of M^pro (in words)” value at SARS-CoV-2 M^pro is “did not substantially inhibit”.

Take `O=C(N/N=C/c1ccc([N+](=O)[O-])o1)c1cc([N+](=O)[O-])cc([N+](=O)[O-])c1O` [nifursol]: the inhibition at 10 µM came out at 43% on SARS-CoV-2 M^pro (ReFRAME hits) and 23% at SARS-CoV-2 PL^pro (ReFRAME hits, 10 µM). Moreover, the IC50 on SARS-CoV-2 PL^pro (read-out: PL^pro IC50) was over 5 µM.

In the case of `CCCCCOc1ccc(-c2cc(-c3ccc(C(=O)N[C@H]4C[C@@H](O)[C@@H](O)NC(=O)[C@@H]5[C@@H](O)[C@@H](C)CN5C(=O)[C@H]([C@H](O)CC(N)=O)NC(=O)[C@H]([C@H](O)[C@@H](O)c5ccc(O)c(OS(=O)(=O)[O-])c5)NC(=O)[C@@H]5C[C@@H](O)CN5C(=O)[C@H]([C@@H](C)O)NC4=O)cc3)no2)cc1.[Na+]` [micafungin Sodium, reference compound] (X1-[Orn(4R-OH,5R-OH)]T[Hyp][hTyr(3S-OH,4S-OH,3'-OSO3H)][Gln(3R-OH)][Pro(3S-OH,4S-Me)]; lactam 1-C), on SARS-CoV-2 PL^pro (ReFRAME hits, 10 µM), the “PL^pro % inhibition at 10 µM” value was 24%. Further, at SARS-CoV-2 PL^pro (setting [3]), the IC50 was over 5 µM.

Regarding `[Cl][Hg][Cl]` [mercuric chloride], the “PL^pro % inhibition at 10 µM” value on SARS-CoV-2 PL^pro (ReFRAME hits, 10 µM) was 16%. Besides, at SARS-CoV-2 PL^pro (setting [3]), the IC50 is over 5 µM.

With `O=C(NCc1ccccn1)C(=O)C(Cc1ccccc1)NC(=O)C1CCC(=O)N1Cc1ccccc1` (stereo not shown) [Compound 1], the “Concentration up to which non-cytotoxic” value in the data set with HUH7 cells is recorded as “up to 100 µM”. The compound further gave an Antiviral effect in the data set on SARS-CoV-2 of 75%.

`O=C1OC2(c3ccccc31)c1cc(I)c(O)c(I)c1Oc1c2cc(I)c(O)c1I` [erythrosine]: the inhibition at 10 µM at SARS-CoV-2 M^pro (ReFRAME hits) is 58%; at SARS-CoV-2 PL^pro (ReFRAME hits, 10 µM), 20%. For the same compound, at SARS-CoV-2 PL^pro, the IC50 is over 5 µM.

Take `CC(=O)Oc1ccccc1C(=O)OC1OC(=O)c2ccccc21` (stereo not shown) [talosalate]: on SARS-CoV-2 M^pro (ReFRAME hits), the “M^pro % inhibition at 10 µM” value amounted to 80%. The IC50 at SARS-CoV-2 M^pro (setting [2]) is 4 µM; at SARS-CoV-2 PL^pro (setting [3]), over 5 µM. Moreover, the “PL^pro % inhibition at 10 µM” value on SARS-CoV-2 PL^pro (ReFRAME hits, 10 µM) is 13%.

For the compound `O=c1cc(-c2ccc(O)c(-c3c(O)cc(O)c4c(=O)cc(-c5ccc(O)cc5)oc34)c2)oc2cc(O)cc(O)c12` [amentoflavone], the inhibition at 10 µM on SARS-CoV-2 M^pro (ReFRAME hits) came to 34%; on SARS-CoV-2 PL^pro (ReFRAME hits, 10 µM), 4%. Besides, the IC50 at SARS-CoV-2 PL^pro (read-out: PL^pro IC50) was over 5 µM.

For the compound teicoplanin [reference compound], on SARS-CoV-2 PL^pro (ReFRAME hits, 10 µM), the “PL^pro % inhibition at 10 µM” value is 88% and 81%.

With `CCOc1cc2ncc(C#N)c(Nc3ccc(F)c(Cl)c3)c2cc1NC(=O)/C=C/CN(C)C` [Compound 10, Pelitinib, reference compound], at SARS-CoV-2 M^pro, the “Inhibition of M^pro (in words)” value is “not determined to display significant biochemical inhibition”. The IC50 on SARS-CoV-2 PL^pro (setting [1]) was over 100 µM.

On to `Cc1cccnc1NS(=O)(=O)c1ccc(C#Cc2ccc(O)c(C(=O)O)c2)cc1` [susalimod], for which the inhibition at 10 µM worked out at 31% at SARS-CoV-2 M^pro (ReFRAME hits) and 22% at SARS-CoV-2 PL^pro (ReFRAME hits, 10 µM). Besides, the IC50 at SARS-CoV-2 M^pro and at SARS-CoV-2 PL^pro (read-out: PL^pro IC50) was over 5 µM in each case.

On to (-)-epicatechin gallate, for which the “PL^pro % inhibition at 10 µM” value at SARS-CoV-2 PL^pro (ReFRAME hits, 10 µM) was determined as 11%. The IC50 on SARS-CoV-2 PL^pro (setting [3]) was over 5 µM.

By IC50 is commonly meant the concentration that gives 50% inhibition. As usually defined, the inhibition is the drop in the measured response relative to a control, in per cent.
